# The supplement of paper PMC10307832
# What was measured:
# Assay in all cases: relative viability (nuclei count vs DMSO), 5 days (fraction); higher = more cells survive
# 201T = test system: 201T
# Method in brief: (§1)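 Relative viability equals treated-well nuclei counts divided by vehicle-well nuclei counts. Counts came from 4× images of lung cancer cell lines grown in 1536-well plates for 5 days after pin-tool dosing on the day after seeding. Dosing used one drug alone or a fixed anchor-drug dose plus five library-drug doses (not always all listed) in √10 steps, and values are medians of duplicate plates.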
# BEN = test system: BEN
# Method in brief: as §1
# CAL-12T = test system: CAL-12T
# Method in brief: as §1
# COR-L 105 = test system: COR-L 105
# Method in brief: as §1
# H3255 = test system: H3255
# Method in brief: as §1
# HARA = test system: HARA
# Method in brief: as §1
# HCC-15 = test system: HCC-15
# Method in brief: as §1
# HCC-827 = test system: HCC-827
# Method in brief: as §1
# LC-2-ad = test system: LC-2-ad
# Method in brief: as §1
# LCLC-103H = test system: LCLC-103H
# Method in brief: as §1
# LK-2 = test system: LK-2
# Method in brief: as §1
# LU99A = test system: LU99A
# Method in brief: as §1
# LXF-289 = test system: LXF-289
# Method in brief: as §1
# NCI-H1437 = test system: NCI-H1437
# Method in brief: as §1
# NCI-H1651 = test system: NCI-H1651
# Method in brief: as §1
# NCI-H1792 = test system: NCI-H1792
# Method in brief: as §1
# NCI-H2085 = test system: NCI-H2085
# Method in brief: as §1
# NCI-H2228 = test system: NCI-H2228
# Method in brief: as §1
# NCI-H23 = test system: NCI-H23
# Method in brief: as §1
# NCI-H2405 = test system: NCI-H2405
# Method in brief: as §1
# NCI-H322M = test system: NCI-H322M
# Method in brief: as §1
# RERF-LC-KJ = test system: RERF-LC-KJ
# Method in brief: as §1
# UMC-11 = test system: UMC-11
# Method in brief: as §1
smiles,measurement,setting,value
Cc1cnc(-c2cnc(NCCNc3ccc(C#N)cn3)nc2-c2ccc(Cl)cc2Cl)[nH]1 + O=C(c1cc(Cc2n[nH]c(=O)c3ccccc23)ccc1F)N1CCN(C(=O)C2CC2)CC1 [Olaparib] (partner 8 µM),relative viability,201T; first compound 0.08 µM,0.848
same,relative viability,201T; first compound 0.8 µM,0.81
same,relative viability,201T; first compound 2.53 µM,0.834
same,relative viability,BEN; first compound 0.08 µM,1.17
same,relative viability,BEN; first compound 0.253 µM,1.04
same,relative viability,BEN; first compound 0.8 µM,0.973
same,relative viability,BEN; first compound 2.53 µM,0.978
same,relative viability,CAL-12T; first compound 0.08 µM,0.686
same,relative viability,CAL-12T; first compound 0.253 µM,0.698
same,relative viability,CAL-12T; first compound 0.8 µM,0.802
same,relative viability,CAL-12T; first compound 2.53 µM,0.756
same,relative viability,COR-L 105; first compound 0.08 µM,0.734
same,relative viability,COR-L 105; first compound 0.253 µM,0.711
same,relative viability,COR-L 105; first compound 0.8 µM,0.642
same,relative viability,COR-L 105; first compound 2.53 µM,0.691
same,relative viability,H3255; first compound 0.08 µM,0.585
same,relative viability,H3255; first compound 0.253 µM,0.543
same,relative viability,H3255; first compound 0.8 µM,0.542
same,relative viability,H3255; first compound 2.53 µM,0.563
same,relative viability,HARA; first compound 0.08 µM,0.509
same,relative viability,HARA; first compound 0.253 µM,0.72
same,relative viability,HARA; first compound 0.8 µM,0.764
same,relative viability,HARA; first compound 2.53 µM,0.894
same,relative viability,HCC-15; first compound 0.08 µM,0.77
same,relative viability,HCC-15; first compound 0.253 µM,0.653
same,relative viability,HCC-15; first compound 0.8 µM,0.721
same,relative viability,HCC-15; first compound 2.53 µM,0.737
same,relative viability,HCC-827; first compound 0.08 µM,0.582
same,relative viability,HCC-827; first compound 0.253 µM,0.514
same,relative viability,HCC-827; first compound 0.8 µM,0.572
same,relative viability,HCC-827; first compound 2.53 µM,0.561
same,relative viability,LC-2-ad; first compound 0.08 µM,0.657
same,relative viability,LC-2-ad; first compound 0.8 µM,0.73
same,relative viability,LC-2-ad; first compound 2.53 µM,0.645
same,relative viability,LCLC-103H; first compound 0.08 µM,0.837
same,relative viability,LCLC-103H; first compound 0.253 µM,0.673
same,relative viability,LCLC-103H; first compound 0.8 µM,0.731
same,relative viability,LCLC-103H; first compound 2.53 µM,0.818
same,relative viability,LK-2; first compound 0.08 µM,0.728
same,relative viability,LK-2; first compound 0.253 µM,0.543
same,relative viability,LK-2; first compound 0.8 µM,0.611
same,relative viability,LK-2; first compound 2.53 µM,0.78
same,relative viability,LU99A; first compound 0.08 µM,0.254
same,relative viability,LU99A; first compound 0.253 µM,0.256
same,relative viability,LU99A; first compound 0.8 µM,0.231
same,relative viability,LU99A; first compound 2.53 µM,0.253
same,relative viability,LXF-289; first compound 0.08 µM,1.04
same,relative viability,LXF-289; first compound 0.253 µM,1
same,relative viability,LXF-289; first compound 0.8 µM,1.11
same,relative viability,LXF-289; first compound 2.53 µM,1.11
same,relative viability,NCI-H1437; first compound 0.08 µM,0.605
same,relative viability,NCI-H1437; first compound 0.253 µM,0.606
same,relative viability,NCI-H1437; first compound 0.8 µM,0.596
same,relative viability,NCI-H1437; first compound 2.53 µM,0.598
same,relative viability,NCI-H1651; first compound 0.08 µM,0.175
same,relative viability,NCI-H1651; first compound 0.253 µM,0.192
same,relative viability,NCI-H1651; first compound 0.8 µM,0.2
same,relative viability,NCI-H1651; first compound 2.53 µM,0.182
same,relative viability,NCI-H1792; first compound 0.08 µM,0.377
same,relative viability,NCI-H1792; first compound 0.253 µM,0.357
same,relative viability,NCI-H1792; first compound 0.8 µM,0.345
same,relative viability,NCI-H1792; first compound 2.53 µM,0.397
same,relative viability,NCI-H2085; first compound 0.08 µM,0.804
same,relative viability,NCI-H2085; first compound 0.253 µM,0.792
same,relative viability,NCI-H2085; first compound 0.8 µM,0.711
same,relative viability,NCI-H2085; first compound 2.53 µM,0.79
same,relative viability,NCI-H2228; first compound 0.08 µM,0.56
same,relative viability,NCI-H2228; first compound 0.253 µM,0.332
same,relative viability,NCI-H2228; first compound 0.8 µM,0.732
same,relative viability,NCI-H2228; first compound 2.53 µM,0.419
same,relative viability,NCI-H23; first compound 0.08 µM,0.316
same,relative viability,NCI-H23; first compound 0.253 µM,0.297
same,relative viability,NCI-H23; first compound 0.8 µM,0.303
same,relative viability,NCI-H23; first compound 2.53 µM,0.367
same,relative viability,NCI-H2405; first compound 0.08 µM,0.882
same,relative viability,NCI-H2405; first compound 0.253 µM,0.771
same,relative viability,NCI-H2405; first compound 0.8 µM,0.88
same,relative viability,NCI-H2405; first compound 2.53 µM,0.661
same,relative viability,NCI-H322M; first compound 0.08 µM,0.768
same,relative viability,NCI-H322M; first compound 0.253 µM,0.733
same,relative viability,NCI-H322M; first compound 0.8 µM,0.638
same,relative viability,NCI-H322M; first compound 2.53 µM,0.637
same,relative viability,RERF-LC-KJ; first compound 0.08 µM,0.902
same,relative viability,RERF-LC-KJ; first compound 0.253 µM,0.65
same,relative viability,RERF-LC-KJ; first compound 0.8 µM,0.839
same,relative viability,RERF-LC-KJ; first compound 2.53 µM,0.858
same,relative viability,UMC-11; first compound 0.08 µM,0.413
same,relative viability,UMC-11; first compound 0.253 µM,0.997
same,relative viability,UMC-11; first compound 0.8 µM,0.343
same,relative viability,UMC-11; first compound 2.53 µM,0.352
